Read-outs that look alike come from different tables or passages of the source. Values belong to the molecule of their own block, whether it stands above or below them. Starred links: 1 amine or outer side, 2 acyl side, 3 side chain; linkers in the order of their positions; H or OH if unused. Positions of bridges follow the written chain, without caps; N, C: chain ends. Non-standard residues stand in square brackets, D forms with d. Residues, ends and D or L forms follow the SMILES beside them. Phe(3-CN) = N#Cc1cccc(C[C@H](N)C(=O)O)c1; Phe(4-NH2) = Nc1ccc(C[C@H](N)C(=O)O)cc1; γGlu = O=C(O)[C@H](CCC(=O)[*:2])N[*:1]; 2Nal = N[C@@H](Cc1ccc2ccccc2c1)C(=O)O; βAsp = O=C(O)[C@H](CC(=O)[*:2])N[*:1]; Ahp(2) = CCCCC[C@H](N)C(=O)O; NMeNle = CCCC[C@H](NC)C(=O)O; Tle = CC(C)(C)[C@H](N)C(=O)O; NMeS = CN[C@@H](CO)C(=O)O; NHexGly = CCCCCCNCC(=O)O; Nle = CCCC[C@H](N)C(=O)O; Orn = NCCC[C@H](N)C(=O)O; Aun = NCCCCCCCCCCC(=O)O; AEEA = NCCOCCOCC(=O)O
Biological target: T1, mouse VISTA (mVISTA) (Mus musculus, UniProt Q9D659)
T1 construct: expressed in transfected cells; host or cells: Human embryonic kidney 293T cells
T1 sequence (Q9D659 33-308): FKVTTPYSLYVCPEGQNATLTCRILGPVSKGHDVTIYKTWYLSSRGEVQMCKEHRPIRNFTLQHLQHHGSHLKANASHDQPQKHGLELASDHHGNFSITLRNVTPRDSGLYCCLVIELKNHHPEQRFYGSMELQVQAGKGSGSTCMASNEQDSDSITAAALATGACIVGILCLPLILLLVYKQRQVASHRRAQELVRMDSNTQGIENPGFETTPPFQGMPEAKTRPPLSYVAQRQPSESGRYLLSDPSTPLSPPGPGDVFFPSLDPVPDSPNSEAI
Experiment: Cell-Based Binding High-Content Assay For mVISTA (HC CBA mVISTA)
Outline: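 Read-out: Alexa 647–streptavidin signal imaged on fixed, Hoechst-stained mVISTA-293T cells, with IC50 taken from a four-parameter logistic curve. Compounds competed with 2 nM biotinylated peptide for 30 min at room temperature, tested under both no-wash and wash (1 h compound, media exchange, 1 h) formats.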

IC50 (read-out: HC CBA mVISTA IC50): 21.7 nM
SMILES: CCCCCCN1CC(=O)N[C@@H](Cc2ccc(O)cc2)C(=O)N[C@@H](CC(C)C)C(=O)N[C@@H](CC(N)=O)C(=O)N[C@@H](CCCN)C(=O)N(C)[C@@H](CCCC)C(=O)N[C@@H](CCCCC)C(=O)N2CCC[C@H]2C(=O)N[C@@H](C(C)(C)C)C(=O)N[C@@H](CO)C(=O)N[C@H](C(=O)N[C@@H](CCC(=O)NCCCCCCCCCCC(=O)O)C(=O)O)CSCC(=O)N[C@@H](Cc2ccccc2)C(=O)N[C@@H](Cc2c[nH]c3ccccc23)C(=O)N[C@@H](CC(=O)O)C1=O [Example 2134] ({CH2CO}-FWD[NHexGly]YLN[Orn][NMeNle][Ahp(2)]P[Tle]SC[γGlu][Aun]-OH; thioether N-14)

SMILES: CCCCCCN1CC(=O)N[C@@H](Cc2ccc(O)cc2)C(=O)N[C@@H](CC(C)C)C(=O)N[C@@H](CC(N)=O)C(=O)N[C@@H](CCCNC(=N)N)C(=O)N(C)[C@@H](CCCC)C(=O)N[C@@H](CCCCC)C(=O)N2CCC[C@H]2C(=O)N[C@@H](C(C)(C)C)C(=O)N[C@@H](CO)C(=O)N[C@H](C(=O)NCC(N)=O)CSCC(=O)N[C@@H](Cc2ccccc2)C(=O)N[C@@H](Cc2cccc(C#N)c2)C(=O)N[C@@H](CC(=O)O)C1=O [compound 1340] ({CH2CO}-F[Phe(3-CN)]D[NHexGly]YLNR[NMeNle][Ahp(2)]P[Tle]SCG-NH2; thioether N-14)
IC50 (read-out: HC CBA mVISTA IC50): 36.8 nM

IC50 (cell-based binding high-content assay, mVISTA, the 16th table, read-out: HC CBA mVISTA IC50): 39.2 nM
SMILES: CCCCCCN1CC(=O)N[C@@H](Cc2ccc(O)cc2)C(=O)N[C@@H](CC(C)C)C(=O)NCC(=O)N[C@@H](CCCNC(=N)N)C(=O)N[C@@H](CC(C)C)C(=O)N[C@@H](CCCCC)C(=O)N2CCC[C@H]2C(=O)N[C@@H](C(C)C)C(=O)N[C@@H](CCC(=O)O)C(=O)N[C@H](C(=O)NCC(N)=O)CSCC(=O)N[C@@H](Cc2ccc3ccccc3c2)C(=O)N[C@@H](Cc2ccc(O)cc2)C(=O)N[C@@H](CC(=O)O)C1=O [Ex 1286] ({CH2CO}-[2Nal]YD[NHexGly]YLGRL[Ahp(2)]PVECG-NH2; thioether N-14)

IC50 (cell-based binding high-content assay, mVISTA, read-out: HC CBA miPrISTA IC50): 41.6 nM
SMILES: CCCCCCN1CC(=O)N[C@@H](Cc2ccc(O)cc2)C(=O)N[C@@H](CC(C)C)C(=O)N[C@@H](CC(N)=O)C(=O)N[C@@H](CCCNC(=N)N)C(=O)N(C)[C@@H](CO)C(=O)N[C@@H](CCCCC)C(=O)N2CCC[C@H]2C(=O)N[C@@H](C(C)(C)C)C(=O)N[C@@H](CC(=O)O)C(=O)N[C@H](C(=O)N[C@@H](CC(=O)NCCOCCOCC(=O)N[C@@H](CC(=O)O)C(=O)NCCOCCOCC(=O)NCCCCCCCCCCC(=O)O)C(=O)O)CSCC(=O)N[C@@H](Cc2ccc3ccccc3c2)C(=O)N[C@@H](Cc2ccc(O)cc2)C(=O)N[C@@H](CC(=O)O)C1=O [compound 2070] ({CH2CO}-[2Nal]YD[NHexGly]YLNR[NMeS][Ahp(2)]P[Tle]DC[βAsp][AEEA]D[AEEA][Aun]-OH; thioether N-14)

IC50 (the 20th table, scaffold drawing 23, read-out: HC CBA mVISTA IC50): 31.4 nM
SMILES: CCCCCCN1CC(=O)N[C@@H](Cc2ccc(O)cc2)C(=O)N[C@@H](CCCC)C(=O)NCC(=O)N[C@@H](CCCNC(=N)N)C(=O)N[C@@H](CC(C)C)C(=O)N[C@@H](CCCCC)C(=O)N2CCC[C@H]2C(=O)N[C@@H](C(C)C)C(=O)N[C@@H](CC(=O)O)C(=O)N[C@H](C(=O)NCC(=O)O)CSCC(=O)N[C@@H](Cc2ccc(N)cc2)C(=O)N[C@@H](Cc2ccc(O)cc2)C(=O)N[C@@H](CC(=O)O)C1=O [compound 1464] ({CH2CO}-[Phe(4-NH2)]YD[NHexGly]Y[Nle]GRL[Ahp(2)]PVDCG-OH; thioether N-14)

IC50 (cell-based binding high-content assay, mVISTA, read-out: HC CBA miPr ISTA IC50): 19.6 nM
SMILES: CCCCCCN1CC(=O)N[C@@H](Cc2ccc(O)cc2)C(=O)N[C@@H](CC(C)C)C(=O)N[C@@H](CC(N)=O)C(=O)N[C@@H](CCCNC(=N)N)C(=O)N[C@@H](CC(C)C)C(=O)N[C@@H](CCCCC)C(=O)N2CCC[C@H]2C(=O)N[C@@H](C(C)C)C(=O)N[C@@H](CO)C(=O)N[C@H](C(=O)N[C@@H](CCC(=O)NCCOCCOCC(=O)N[C@@H](CC(=O)O)C(=O)NCCOCCOCC(=O)NCCCCCCCCCCC(=O)O)C(=O)O)CSCC(=O)N[C@@H](Cc2ccccc2)C(=O)N[C@@H](Cc2ccc(O)cc2)C(=O)N[C@@H](CC(=O)O)C1=O [compound 2002] ({CH2CO}-FYD[NHexGly]YLNRL[Ahp(2)]PVSC[γGlu][AEEA]D[AEEA][Aun]-OH; thioether N-14)

IC50 (read-out: HC CBA mVISTA IC50): 11.5 nM
SMILES: CCCCCCN1CC(=O)N[C@@H](Cc2ccc(O)cc2)C(=O)N[C@@H](CCCC)C(=O)N[C@@H](CC(N)=O)C(=O)N[C@@H](CCCNC(=N)N)C(=O)N(C)[C@@H](CCCC)C(=O)N[C@@H](CCCCC)C(=O)N2CCC[C@H]2C(=O)N[C@@H](C(C)C)C(=O)N[C@@H](CC(=O)O)C(=O)N[C@H](C(=O)NCCOCCOCC(=O)N[C@@H](CCC(=O)NCCOCCOCC(=O)NCCCCCCCCCCC(=O)O)C(=O)O)CSCC(=O)N[C@@H](Cc2ccccc2)C(=O)N[C@@H](Cc2c[nH]c3ccccc23)C(=O)N[C@@H](CC(=O)O)C1=O [compound 2218] ({CH2CO}-FWD[NHexGly]Y[Nle]NR[NMeNle][Ahp(2)]PVDC[AEEA][γGlu][AEEA][Aun]-OH; thioether N-14)

Source: patent publication US20240218022A1, “ANTI-VISTA MACROCYCLIC PEPTIDES AND COMPOSITIONS” (BRISTOL-MYERS SQUIBB COMPANY, priority 2022, published 2024)
